Experimental findings from ChEMBL document CHEMBL3525908, “Chronic doxorubicin cardiotoxicity modulates cardiac cytochrome P450-mediated arachidonic acid metabolism in rats” (Drug Metab Dispos, 2012) are described below.

The term fold induction denotes the signal under treatment as a multiple of the control signal.

The subject of data set [1] is Rattus norvegicus. Briefly: Toxicity in Sprague-Dawley rat assessed as CYP4A1 gene expression in liver administered as cumulative dose of 15 mg/kg, ip divided into 6 injections for 2 weeks followed by compound washout period of 14 days by RT-PCR analysis relative to control. It is filed as organism-based. The note with it: in vivo, 336 h. Set-up: dose 15 mg/kg, route intraperitoneal.

For data set [2], the system named is H9c2. Kind of data set: Cytotoxicity against rat H9c2 cells assessed as reduction in BNP mRNA expression at 1 uM after 6 hrs. It is filed as cell-based. As to conditions: h9c2, 6 h; call rule not given here.
In data set [3] the test system is Rattus norvegicus. Kind of data set: Toxicity in Sprague-Dawley rat assessed as induction of IL-6 gene expression in kidney administered as cumulative dose of 15 mg/kg, ip divided into 6 injections for 2 weeks followed by compound washout period of 14 days by RT-PCR analysis relative to control. It counts as organism-based. Set-up: dose 15 mg/kg, route intraperitoneal. As to conditions: 336 h.

Data set [4] concerns Rattus norvegicus. Kind of data set: Induction of omega-1 hydroxylase-mediated arachidonic acid metabolism in Sprague-Dawley rat heart microsomes assessed as 19-HETE formation administered as cumulative dose of 15 mg/kg, ip divided into 6 injections for 2 weeks followed by compound washout period of 14 days by LC-ESI-MS analysis relative to control. It is filed as ADME, organism-based. Set-up: dose 15 mg/kg, route intraperitoneal. As to conditions: 336 h.

The subject of data set [5] is Rattus norvegicus. Kind of data set: Toxicity in Sprague-Dawley rat assessed as CYP2J3 gene expression in liver administered as cumulative dose of 15 mg/kg, ip divided into 6 injections for 2 weeks followed by compound washout period of 14 days by RT-PCR analysis relative to control. It is filed as organism-based. Set-up: dose 15 mg/kg, route intraperitoneal. The note with it: in vivo, 336 h.

For data set [6], the system named is Rattus norvegicus. Briefly: Toxicity in Sprague-Dawley rat assessed as CYP2B1 gene expression in kidney administered as cumulative dose of 15 mg/kg, ip divided into 6 injections for 2 weeks followed by compound washout period of 14 days by RT-PCR analysis relative to control. It counts as organism-based. The arrangement: dose 15 mg/kg, route intraperitoneal. The note with it: in vivo, 336 h.

Data set [7] has as its system Rattus norvegicus. Kind of data set: Toxicity in Sprague-Dawley rat assessed as CYP4A1 gene expression in kidney administered as cumulative dose of 15 mg/kg, ip divided into 6 injections for 2 weeks followed by compound washout period of 14 days by RT-PCR analysis relative to control. It counts as organism-based. Set-up: dose 15 mg/kg, route intraperitoneal. The note with it: in vivo, 336 h.

The test system of data set [8] is H9c2. Briefly: Cytotoxicity against rat H9c2 cells assessed as reduction in BNP mRNA expression at 1 uM after 6 hrs in presence of HET0016. It is filed as cell-based. As to conditions: h9c2, 6 h.
In data set [9] the test system is Rattus norvegicus. Kind of data set: Cardiotoxicity in Sprague-Dawley rat assessed as increase in CYP1A1 gene expression level administered as cumulative dose of 15 mg/kg, ip divided into 6 injections for 2 weeks followed by compound washout period of 14 days by RT-PCR analysis relative to control. It counts as toxicity, organism-based. Set-up: dose 15 mg/kg, route intraperitoneal. The note with it: in vivo, 336 h.

Data set [10] relates to Rattus norvegicus. Kind of data set: Cardiotoxicity in Sprague-Dawley rat assessed as increase in alpha-MHC gene expression level administered as cumulative dose of 15 mg/kg, ip divided into 6 injections for 2 weeks followed by compound washout period of 14 days by RT-PCR analysis relative to control. It is filed as toxicity, organism-based. Set-up: dose 15 mg/kg, route intraperitoneal. As to conditions: in vivo, 336 h.

A further data set has as its system EPHX2. Kind of data set: Cardiotoxicity in Sprague-Dawley rat assessed as increase in EPHX2 gene expression level administered as cumulative dose of 15 mg/kg, ip divided into 6 injections for 2 weeks followed by compound washout period of 14 days by RT-PCR analysis relative to control. It counts as toxicity, organism-based. Set-up: dose 15 mg/kg, route intraperitoneal. As to conditions: heart.

Another data set has as its system CYP1B1. Kind of data set: Toxicity in Sprague-Dawley rat assessed as induction of CYP1B1 gene expression in liver administered as cumulative dose of 15 mg/kg, ip divided into 6 injections for 2 weeks followed by compound washout period of 14 days by RT-PCR analysis relative to control. It is filed as organism-based. The arrangement: dose 15 mg/kg, route intraperitoneal.

Data set [11] has as its system Rattus norvegicus. Briefly: Toxicity in Sprague-Dawley rat assessed as inhibition of CYP2B2 gene expression in kidney administered as cumulative dose of 15 mg/kg, ip divided into 6 injections for 2 weeks followed by compound washout period of 14 days by RT-PCR analysis relative to control. As to conditions: in vivo, 336 h. Set-up: dose 15 mg/kg, route intraperitoneal. It is filed as organism-based.

Data set [12] concerns Rattus norvegicus. Kind of data set: Induction of CYP450-mediated arachidonic acid metabolism in Sprague-Dawley rat heart microsomes assessed as 14,15-EET formation administered as cumulative dose of 15 mg/kg, ip divided into 6 injections for 2 weeks followed by compound washout period of 14 days by LC-ESI-MS analysis relative to control. The arrangement: dose 15 mg/kg, route intraperitoneal. The note with it: 336 h. It is filed as ADME, organism-based.

For data set [13], the system named is Rattus norvegicus. Briefly: Cardiotoxicity in Sprague-Dawley rat assessed as increase in CYP1B1 gene expression level administered as cumulative dose of 15 mg/kg, ip divided into 6 injections for 2 weeks followed by compound washout period of 14 days by RT-PCR analysis relative to control. It counts as toxicity, organism-based. Set-up: dose 15 mg/kg, route intraperitoneal. As to conditions: in vivo, 336 h.

For data set [14], the system named is Rattus norvegicus. Briefly: Toxicity in Sprague-Dawley rat assessed as inhibition of CYP2B1 gene expression in liver administered as cumulative dose of 15 mg/kg, ip divided into 6 injections for 2 weeks followed by compound washout period of 14 days by RT-PCR analysis relative to control. It is filed as organism-based. Set-up: dose 15 mg/kg, route intraperitoneal. The note with it: in vivo, 336 h.

As to `COc1cccc2c1C(=O)c1c(O)c3c(c(O)c1C2=O)C[C@@](O)(C(=O)CO)C[C@@H]3O[C@H]1C[C@H](N)[C@H](O)[C@H](C)O1` [DOXORUBICIN], the Activity entry with Rattus norvegicus [1], in the data set on H9c2 [2], in the data set on Rattus norvegicus [4], with Rattus norvegicus [5], with Rattus norvegicus [6] and in the data set on Rattus norvegicus [7] was “Non-toxic” throughout. The Activity entry with H9c2 [8] is listed as “Toxic”; in the data set with Rattus norvegicus [9], “Non-toxic”; in the data set on Rattus norvegicus [12], “Active”; in the data set on Rattus norvegicus [13], “Non-toxic”. The fold induction at 15 mg/kg with Rattus norvegicus [3] is 4.7. Also, the Ratio in the data set with Rattus norvegicus [10] was 1.6; with Rattus norvegicus [11], 0.74; in the data set with Rattus norvegicus [14], 0.5. Besides, the figures for the fold induction at 336 h in the data set on EPHX2 and in the data set on CYP1B1 were 1.9 and 2.5, respectively.
